Assay results as given in patent US12528837B2, “Aryl substituted polymyxin derivatives” (priority 2018, dated 2026).
Converted amounts (≈) assume the structure as drawn. Read-outs that look alike come from different tables or passages of the source. Where a SMILES comes first, the peptide text is derived from it. Bridges are numbered along the chain shown (N, C = ends). [ ]: non-standard residue; d: D form. The star is where a group is joined. X21 = NC[C@H](CC(=O)*)c1cc(Cl)cc(Cl)c1; X22 = CC(C)Cc1cccc([C@H](CN)CC(=O)*)c1; X4 = NC[C@@H](CC(=O)*)c1ccc(Cl)cc1; X7 = NC[C@H](CC(=O)*)c1cccc(Cl)c1; dNle = CCCC[C@@H](N)C(=O)O; Dab = NCC[C@H](N)C(=O)O; Abu = CC[C@H](N)C(=O)O; Dap = NC[C@H](N)C(=O)O

How the values were obtained:
HK-2 cells = assay: In vitro renal cell toxicity assay (HK-2); type: cell-based
Experimental: The in vitro renal cell toxicity assay was performed according to the following protocol. […] Cells were seeded at 7,500 cells per well in 96-well plates and allowed to adhere overnight. […] Water and DMSO levels were kept constant at 5% and 0.5% respectively. The test compounds were incubated with cells for 24 h at 37° C. 5% CO2 in a humidified atmosphere. […] Media only background values were subtracted before the data was analysed using GraphPad Prism. Individual values were normalised to the vehicle control wells for each compound. Compound concentration values were plotted as log values to enable a dose-response curve to be fitted. The bottom of the curve was constrained to zero and IC50 values were determined. IC50 values are expressed relative to that for PMB in the same experiment. Where multiple determinations have been made, median values are presented.

K. pneumoniae CA64 = type: cell-based
Experimental: (§1) The inoculum was prepared by making a direct suspension of isolated colonies (selected from an 18-24 hour Mueller-Hinton agar plate) adjusted to the 0.5 McFarland standard. […] The assays were performed in duplicate. […] Several of the compounds were subjected to multiple tests, and where this is the case, the MIC presented is the median value obtained. The MIC values are quoted in μg/mL.

P. aeruginosa CCUG 59347 = type: cell-based
Experimental: as §1

E. coli CA58 = type: cell-based
Experimental: as §1

[1] = Kidney drug level after subcutaneous dose in mouse; type: in vivo; conditions: mouse, in vivo
Experimental: Four hours after dosing the animals were euthanised and kidneys removed, trimmed of fat and connective tissue, weighed and immediately snap-frozen. After thawing at room temperature, pairs of kidneys from each animal were placed in 2 mL conical tubes containing pre-weighed ceria-stabilised zirconium oxide beads. […] After 10 min. centrifugation at 13,000 rpm and 6° C., 200 μl of the supernatants were transferred into glass inserts and analysed by LC-MS-MS.

[2] = system: A. baumannii ATCC BAA-747; type: cell-based; conditions: ATCC BAA-747
Experimental: (§2) The inoculum was prepared by making a direct suspension of isolated colonies (selected from an 18-24 hour Mueller-Hinton agar plate) adjusted to the 0.5 McFarland standard. […] The assays were performed in duplicate. […] The MIC values are quoted in μg/mL.

P. aeruginosa ATCC 27853 = type: cell-based
Experimental: as §2

A. baumannii NCTC 13424 = type: cell-based; conditions: NCTC 13424
Experimental: as §2

E. coli ATCC 25922 = type: cell-based
Experimental: as §2

K. pneumoniae ATCC 13822 = type: cell-based
Experimental: as §2

[3] = cation-adjusted Mueller-Hinton Broth, 18-20 h, 35° C.

MIC K. pneumoniae CA64 (K. pneumoniae CA64; CA64) [µg/mL]	MIC P. aeruginosa CCUG 59347 (P. aeruginosa CCUG 59347; CCUG 59347) [µg/mL]	MIC E. coli CA58 (E. coli CA58; CA58) [µg/mL]	Drug Level in Kidney (μg/g kidney, 4 h) ([1]; sc, 17.2 mg/kg) [μg/g kidney]	tissue level at time at 4 h ([1]; sc, 17.2 mg/kg) [ng/g]	MIC A. baumannii ATCC BAA-747 [2] [µg/mL]	MIC P. aeruginosa ATCC 27853 (P. aeruginosa ATCC 27853; ATCC 27853) [µg/mL]	MIC A. baumannii NCTC 13424 (A. baumannii NCTC 13424) [µg/mL]	MIC E. coli ATCC 25922 (E. coli ATCC 25922; ATCC 25922) [µg/mL]	MIC K. pneumoniae ATCC 13822 (K. pneumoniae ATCC 13822; ATCC 13822) [µg/mL]	Compound	HK-2 rel to PMB (HK-2 cells)	4 hr kidney level/rel. cytotoxicity [1]	MIC K. pneumoniae CA64 (K. pneumoniae CA64; [3]) [µg/mL]	MIC P. aeruginosa CCUG 59347 (P. aeruginosa CCUG 59347; [3]) [µg/mL]	MIC E. coli CA58 (E. coli CA58; [3]) [µg/mL]	MIC E. coli ATCC 25922 (E. coli ATCC 25922; [3]) [µg/mL]	MIC P. aeruginosa ATCC 27853 (P. aeruginosa ATCC 27853; [3]) [µg/mL]	MIC K. pneumoniae ATCC 13822 (K. pneumoniae ATCC 13822; [3]) [µg/mL]
8 (≈ 6.99 µM)	0.25 (≈ 0.218 µM)	4 (≈ 3.49 µM)	268	267000	0.06 (≈ 0.0524 µM)	0.06 (≈ 0.0524 µM)	0.06 (≈ 0.0524 µM)			CC(C)C[C@@H]1NC(=O)[C@@H](Cc2ccccc2)NC(=O)[C@H](CCN)NC(=O)[C@@H](NC(=O)[C@H](CN)NC(=O)[C@@H](NC(=O)C[C@H](CN)c2ccc(Cl)cc2)[C@@H](C)O)CCNC(=O)[C@H]([C@@H](C)O)NC(=O)[C@H](CCN)NC(=O)[C@H](CCN)NC1=O [Example 1, (S)-4-amino-3-(4- chlorophenyl) butanoyl- Thr- Dap-Cyclo[Dab- Dab-DPhe-Leu-Dab- Dab-Thr]] (X4-T[Dap][Dab][Dab][dF]L[Dab][Dab]T; lactam 3-C)	8.8	30						
2 (≈ 1.81 µM)	0.5 (≈ 0.453 µM)	16 (≈ 14.5 µM)				0.5 (≈ 0.453 µM)		0.25 (≈ 0.226 µM)	0.25 (≈ 0.226 µM)	CC[C@@H]1NC(=O)[C@@H](CC(C)C)NC(=O)[C@H](CCN)NC(=O)[C@@H](NC(=O)[C@H](CN)NC(=O)[C@@H](NC(=O)C[C@@H](CN)c2cccc(CC(C)C)c2)[C@@H](C)O)CCNC(=O)[C@H]([C@@H](C)O)NC(=O)[C@H](CCN)NC(=O)[C@H](CCN)NC1=O [Example 27, (R)-4-amino-3-(3- isobutylphenyl)butanoyl- Thr- Dap- Cyclo[Dab-Dab-DLeu- Abu-Dab-Dab-Thr]] (X22-T[Dap][Dab][Dab][dL][Abu][Dab][Dab]T; lactam 3-C)								
8 (≈ 6.99 µM)	0.5 (≈ 0.437 µM)	8 (≈ 6.99 µM)			0.5 (≈ 0.437 µM)		0.5 (≈ 0.437 µM)			CC(C)C[C@@H]1NC(=O)[C@@H](Cc2ccccc2)NC(=O)[C@H](CCN)NC(=O)[C@@H](NC(=O)[C@H](CN)NC(=O)[C@@H](NC(=O)C[C@@H](CN)c2cccc(Cl)c2)[C@@H](C)O)CCNC(=O)[C@H]([C@@H](C)O)NC(=O)[C@H](CCN)NC(=O)[C@H](CCN)NC1=O [Example 6, (R)-4-amino-3-(3- chlorophenyl) butanoyl- Thr-Dap-Cyclo[Dab- Dab-DPhe-Leu-Dab- Dab-Thr]] (X7-T[Dap][Dab][Dab][dF]L[Dab][Dab]T; lactam 3-C)	7.8	49						
										CCCC[C@H]1NC(=O)[C@H](CCN)NC(=O)[C@@H](NC(=O)[C@H](CN)NC(=O)[C@@H](NC(=O)C[C@@H](CN)c2cc(Cl)cc(Cl)c2)[C@@H](C)O)CCNC(=O)[C@H]([C@@H](C)O)NC(=O)[C@H](CCN)NC(=O)[C@H](CCN)NC(=O)[C@H](CC)NC1=O [Example 29, (R)-4-amino-3-(3,5- dichlorophenyl)butanoyl- Thr-Dap- Cyclo[Dab-Dab- DnorLeu-Abu-Dab- Dab-Thr]] (X21-T[Dap][Dab][Dab][dNle][Abu][Dab][Dab]T; lactam 3-C)			8 (≈ 7.16 µM)	0.5 (≈ 0.448 µM)	16 (≈ 14.3 µM)	0.25 (≈ 0.224 µM)	0.25 (≈ 0.224 µM)	0.25 (≈ 0.224 µM)
